The text below walks through data of patent publication US20110081362A1, “TREATMENT OF CANCER” (THE BRIGHAM AND WOMEN'S HOSPITAL, INC., priority 2008, published 2011).

“Also recorded” adds a separate entry of the source.

Holding throughout (type): cell-based, human
Test [1] relates to DLD-1 Ras Mut cells vs DLD-1 Ras WT cells. In words: Competition assay, GFP-labeled Ras Mut vs Ras WT cells, FACS. The protocol: E. Schematic of the competition assay used to validate shRNAs from the primary screen. Ras Mut cells expressing GFP and Ras WT cells were mixed and co-infected with the same retroviral shRNA. The Mut to WT cell ratio at the end of the experiment is measured by FACS. The percentage of Ras Mut cells in the mixture infected with a candidate RSL shRNA was normalized against that of a control shRNA targeting firefly luciferase (FF) within the same experiment to generate a normalized fitness score for the Ras Mut cells. Variations of this assay are also used to test the effect of siRNAs and chemical inhibitors.
Next, a competition assay was devised to test the reproducibility of candidate RSL shRNAs from the primary screen (Torrance et al., 2001; Smogorzewska et al., 2007). Individual shRNAs were packaged into retroviruses and infected into a 50:50 mixture of GFP+ DLD-1 Ras Mut cells and GFP (colorless) DLD-1 Ras WT cells. The relative ratio of Ras Mut versus WT cells at ˜7 days post shRNA infection was analyzed by FACS and compared to that of a mixed population infected with a negative control shRNA targeting luciferase (FIG. 8E). […] To rule out cell-line specific effect of candidate RSL shRNAs, candidates were tested using the competition assay in a second isogenic pair of colorectal cancer cell lines: HCT116 KRAS WT/G13D and HCT116 KRAS WT/−, which were derived with a similar method as the DLD-1 isogenic pair (Shirasawa et al., 1993; Torrance et al., 2001).
The competition assay used to test candidate genes from the screen was modified from a previous protocol (Torrance et al., 2001; Smogorzewska et al., 2007) and was carried out in 96-well plates in independent triplicates. For this assay, 1,000 each of GFP-labeled Ras Mut and unlabeled Ras WT cells were seeded in each well. For retroviral shRNA infection, cells were infected at an MOI of 1-5, selected for 3 days with puromycin and propagated for an additional 4-5 days before analyzed by FACS. An shRNA targeting firefly luciferase (shRNA-FF) was used as the negative control. For siRNA transfection, cells were transfected with siGenome siRNAs (Dharmacon) using Lipofectamine RNAiMAX (InVitrogen) and analyzed by FACS 5-6 days post transfection An siRNA targeting luciferase (Luc) was used as the negative control. […] Untreated wells were used as negative controls. To obtain normalized fitness of Ras Mut cells that can be compared across experiments, the percentage of Ras Mut cells in each sample was normalized to that in the control samples of that experiment.

The test system of another test is DLD-1 Ras Mut cells. The test can be described thus: CellTiter GLO cell viability assay. The note with it: DLD-1 Ras Mut vs WT measured independently. On the procedure: The DLD-1 and HCT116 isogenic cells were kind gifts from Dr. Bert Vogelstein (Johns Hopkins University School of Medicine) and were maintained in McCoy's 5A media supplemented with 10% FBS and antibiotics. For proliferation assays, 10,000 cells were seeded in each well of a 24-well plate and cell number was measured using CellTiterGLO (Promega). For adherent colony assays, 1000 cells were seeded in each well of a 6-well plate and colonies were counted 10 days later by Coomassie staining. For anchorage independent colony assays, 1000 cells were seeded in each well of a 6-well plate in media containing 0.35% low-melting point agarose and colonies were counted 3 weeks later by crystal violet staining. The PCR primers used to amplify HH barcodes from genomic DNA samples are JH353F 5′-[…]-3′ and HHR2L 5′-[…]-3′. […] Paclitaxel, nocodazole, MG132 and monastrol were from Sigma-Aldrich. RO-3306 was from EMD Calbiochem. Bortezomib was from LC Laboratories. Rabbit antibody against phospho-PLK1 T210 was from Abcam. Rabbit phosphoH3-S10 antibody was from Covance. Mouse antibodies against PLK1, K-Ras and tubulin were from Santa Cruz Biotechnologies. Rabbit anti-COPS4 antibody was from Bethyl Laboratories.
Background: Cellular ATP, detected with luciferase, serves as a proxy for viable cell number.

In test [2] the test system is DLD-1 Ras Mut and Ras WT cells. The test can be described thus: Cell cycle and mitotic stage analysis (FACS, phospho-H3 Ser10, microscopy). As to conditions: for Completion of mitosis (mitotic exit) after nocodazole release: BI-2536 for 2 hours. On the procedure: For cell cycle analysis, cells were ethanol fixed and stained with PI and analyzed using a BD LSR II FACS analyzer (BD Bioscience). Data analysis was carried out with BD FACS Diva and FlowJo softwares. Cell cycle synchronization by double thymidine block was based on a previous protocol (Steegmaier et al., 2007). Briefly, cells were arrested with two rounds of 20-hour thymidine (2.5 mM) treatment approximately 12 hours apart and released into mitosis. […] For one-step arrest in G2/M or in prometaphase, cells were treated overnight with either RO-3306 (10 μM) or the Eg5 kinesin inhibitor monastrol (100 μM), respectively. For mitotic entry experiments, cells were synchronized in RO-3306 (10 uM) overnight prior to release. For mitotic release experiments, cells were released from overnight synchronization in RO-3306 (10 uM) into nocodazole ([…]) for 4 hours and mitotic cells were collected by mitotic shake-off. Cells were then release by washing out the nocodazole. For the analysis of lagging chromosomes and mitotic index by microscopy, cells seeded onto coverslips were arrested in mitosis with 100 μM monastrol for 16 hours. Cells were washed and released into fresh media and were fixed at ten minute intervals for two hours in PHEM buffer+2% formaldehyde+0.5% triton-X100. Cells were immunostained with DAPI to visualized DNA and antibodies to phospho-histone H3 Ser10 (pH3S10) and to α-tubulin to identify mitotic cells at different stages. Independent triplicates with >100 cells per replicate were analyzed. For measuring mitotic index by FACS, cells were trypsinized, fixed with ethanol and stained with PI and pH3S10 antibody.

For test [3], the system named is DLD-1 PI3K Mut cells vs PI3K WT cells. In words: Competition assay, PI3K Mut vs PI3K WT cells. The note with it: DLD-1 isogenic for the PI3K oncogene.
Test [4] has as its system HCT116 PI3K Mut cells vs PI3K WT cells. In words: Competition assay, PI3K Mut vs PI3K WT cells. As to conditions: HCT116 isogenic for the PI3K oncogene.
For test [5], the system named is HMECs, HCT116, HCC1954 and DLD-1 cells. In words: Cell viability after nutlin-3 treatment. The note with it: 4 days of nutlin-3 treatment; HMECs and HCT116 p53 wild-type, HCC1954 and DLD-1 p53 mutant. On the procedure: Cell viability is reflective of their p53 status (HMECs and HCT116 cells, p53 wild-type; HCC1954 and DLD-1 cells, p53 mutant). Cell viability was measured after 4 days of nutlin-3 treatment (*, P<0.05). ctrl, control.
Cells were infected in triplicate in 96-well or 24-well plates with retroviruses of individual shRNAs as described above, and the media was replaced 24 h after infection. On days 2, 6, or 9 post-infection, cell viability was measured using CellTiter-Glo reagent (Promega) per manufacturer's instruction on a Wallac Victor2 plate reader (Perkin Elmer).

The test system of the next test is MDM2 and p21. The test can be described thus: Western blot of MDM2 and p21 in response to nutlin-3. The note with it: 2 days post treatment. From the text:
D. Top, Western blots of MDM2 protein knockdown in HCC1954 cells and HMECs by MDM2 shRNAs (4 days post-infection) as indicated in FIG. 4E.
The following primary and secondary antibodies were used for immunoblotting with the indicated dilutions: rabbit anti-Rbx1 and mouse anti-PRPS2 (1:500, Abcam), rabbit anti-MYPT1 (PPP1R12A gene product, 1:500, Upstate), mouse anti-tubulin and rabbit anti-GAPDH (1:2000, Sigma), mouse anti MDM2 (1:500, Santa Cruz), rabbit anti-BUB1 (1:500, Bethyl), mouse anti-p53 DO-1 and mouse anti-p21 (1:500, Calbiochem), goat anti-rabbit-HRP (1:5000, Jackson ImmunoResearch), and goat anti-mouse-HRP (1:5000, Jackson ImmunoResearch). Positive and negative siRNA controls, including siLUC, siTOX, siGLO duplexes and a PLK1 SMARTpool, were purchased from Dharmacon.
(In western blotting, separated proteins are transferred to a membrane and probed.)

Consider `CC[C@@H]1C(=O)N(C)c2cnc(Nc3ccc(C(=O)NC4CCN(C)CC4)cc3OC)nc2N1C1CCCC1` [BI-2536], for which the “Viability/fitness of Ras Mut cells after transient treatment” value in test [1] (DLD-1, 24 hours treatment, drug washed out, 3 additional days before FACS) is given as “sufficient to selectively impair the viability of Ras Mut cells”. Besides, the “Concentration at which the synthetic lethal effect is strongest” value in test [1] (DLD-1 cells) is “approximately 25 nM”. Also, the “Toxicity by CellTiter GLO cell viability” value in the test on DLD-1 Ras Mut cells is “enhanced toxicity in DLD-1 Ras Mut cells”. Moreover, in test [2] (DLD-1, 25 nM or 50 nM BI-2536 for one day), the “G2/M accumulation, cell cycle distribution” value was “Ras Mut cells show a profound G2/M accumulation”. Besides, the “Sub-G1 population (cell death)” value in test [2] (DLD-1, prolonged treatment with BI-2536 (25 nM) for 2 days) was “elevated sub-G1 population in Ras Mut cells”. The “Completion of mitosis (mitotic exit) after nocodazole release” value in test [2] (DLD-1 Ras Mut cells) is reported as “profound delay in mitotic exit in Ras Mut cells”; in test [2] (DLD-1 Ras WT cells) it was “minimal effect on Ras WT cells”. Further, the “Prometaphase arrest of mitotic cells” value in test [2] (DLD-1 Ras Mut vs Ras WT) is “strong block of Ras Mut cells in prometaphase”. Besides, the “Mitotic entry after release from RO-3306 into nocodazole” value in test [2] (DLD-1 Ras WT or Ras Mut, synthetic lethal concentration of BI-2536, 1 hour) was “unaffected”. For the same molecule, the “Fitness of PI3K Mut cells vs PI3K WT cells” value in test [3] is given as “more resistant to these inhibitors relative to DLD-1 PI3K WT cells”; in test [4], “very little difference”.
On to `COc1ccc(C2=N[C@@H](c3ccc(Cl)cc3)[C@@H](c3ccc(Cl)cc3)N2C(=O)N2CCNC(=O)C2)c(OC(C)C)c1` [nutlin-3], for which the “Cell viability, sensitivity to nutlin-3” value in test [5] was “recapitulating the sensitivity of these cells to MDM2 inactivation; also recorded: Differential sensitivity of the four cell lines”. In addition, the “MDM2 and p21 protein induction” value in the test on MDM2 and p21 was “MDM2 and p21 induction”.
